From PubChem BioAssay (NCI)
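These data come from cells grown in 96-well plates and exposed to compound for 48 hours at five concentrations. TGI: total growth inhibition.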

Tests used:
Experiment in all cases: NCI anticancer screen, dose series, 48 h
OVCAR-8 ovarian = test system: OVCAR-8 ovarian
UACC-257 melanoma = test system: UACC-257 melanoma
EKVX NSCLC = test system: EKVX NSCLC
ACHN renal = test system: ACHN renal
NCI-H226 lung = test system: NCI-H226 lung
SK-OV-3 ovarian = test system: SK-OV-3 ovarian
SN12C renal = test system: SN12C renal
NCI-H460 lung = test system: NCI-H460 lung
OVCAR-4 ovarian = test system: OVCAR-4 ovarian
HOP-62 NSCLC = test system: HOP-62 NSCLC
MDA-MB-435 = test system: MDA-MB-435
MOLT-4 leukemia = test system: MOLT-4 leukemia
NCI-H522 lung = test system: NCI-H522 lung
MALME-3M melanoma = test system: MALME-3M melanoma
MDA-N = test system: MDA-N
LOX IMVI melanoma = test system: LOX IMVI melanoma
SW-620 colon = test system: SW-620 colon
HS 578T breast = test system: HS 578T breast
NCI/ADR-RES ovarian = test system: NCI/ADR-RES ovarian
HL-60(TB) leukemia = test system: HL-60(TB) leukemia
MCF7 breast = test system: MCF7 breast
HCC-2998 colon = test system: HCC-2998 colon
HCT-116 colon = test system: HCT-116 colon
SK-MEL-2 melanoma = test system: SK-MEL-2 melanoma
UACC-62 melanoma = test system: UACC-62 melanoma
CCRF-CEM leukemia = test system: CCRF-CEM leukemia
U251 CNS = test system: U251 CNS
NCI-H23 lung = test system: NCI-H23 lung
RPMI-8226 leukemia = test system: RPMI-8226 leukemia
MDA-MB-231 breast = test system: MDA-MB-231 breast
K-562 leukemia = test system: K-562 leukemia
DU-145 prostate = test system: DU-145 prostate
A498 renal = test system: A498 renal
IGROV1 ovarian = test system: IGROV1 ovarian
SR leukemia = test system: SR leukemia
RXF 393 renal = test system: RXF 393 renal
CAKI-1 renal = test system: CAKI-1 renal
TK-10 renal = test system: TK-10 renal
HT29 colon = test system: HT29 colon
UO-31 renal = test system: UO-31 renal
SNB-75 CNS = test system: SNB-75 CNS
786-0 renal = test system: 786-0 renal
HCT-15 colon = test system: HCT-15 colon
OVCAR-5 ovarian = test system: OVCAR-5 ovarian
SF-268 CNS = test system: SF-268 CNS
PC-3 prostate = test system: PC-3 prostate
SF-295 CNS = test system: SF-295 CNS
BT-549 breast = test system: BT-549 breast
KM12 colon = test system: KM12 colon
SK-MEL-28 melanoma = test system: SK-MEL-28 melanoma
OVCAR-3 ovarian = test system: OVCAR-3 ovarian
M14 melanoma = test system: M14 melanoma
A549 NSCLC = test system: A549 NSCLC
T-47D breast = test system: T-47D breast
SNB-19 CNS = test system: SNB-19 CNS
COLO 205 colon = test system: COLO 205 colon
SF-539 CNS = test system: SF-539 CNS
HOP-92 NSCLC = test system: HOP-92 NSCLC
SK-MEL-5 melanoma = test system: SK-MEL-5 melanoma

## CN1CCN(C(=O)CCNC(=O)Cc2ccc(C(=O)c3ccccc3)cc2)CC1
OVCAR-8 ovarian
  TGI: > 100 µM
UACC-257 melanoma
  TGI: > 100 µM
EKVX NSCLC
  TGI: > 100 µM
ACHN renal
  TGI: > 100 µM
NCI-H226 lung
  TGI: > 100 µM
SK-OV-3 ovarian
  TGI: > 100 µM
SN12C renal
  TGI: > 100 µM
NCI-H460 lung
  TGI: > 100 µM
OVCAR-4 ovarian
  TGI: > 100 µM
HOP-62 NSCLC
  TGI: > 100 µM
MDA-MB-435
  TGI: 56 µM
MOLT-4 leukemia
  TGI: > 100 µM
NCI-H522 lung
  TGI: > 100 µM
MALME-3M melanoma
  TGI: > 100 µM
MDA-N
  TGI: 71.5 µM
LOX IMVI melanoma
  TGI: > 100 µM
SW-620 colon
  TGI: > 100 µM
HS 578T breast
  TGI: > 100 µM
NCI/ADR-RES ovarian
  TGI: > 100 µM
HL-60(TB) leukemia
  TGI: > 100 µM
MCF7 breast
  TGI: > 100 µM
HCC-2998 colon
  TGI: > 100 µM
HCT-116 colon
  TGI: > 100 µM
SK-MEL-2 melanoma
  TGI: > 100 µM
UACC-62 melanoma
  TGI: > 100 µM
CCRF-CEM leukemia
  TGI: > 100 µM
U251 CNS
  TGI: > 100 µM
NCI-H23 lung
  TGI: > 100 µM
RPMI-8226 leukemia
  TGI: > 100 µM
MDA-MB-231 breast
  TGI: > 100 µM
K-562 leukemia
  TGI: > 100 µM
DU-145 prostate
  TGI: > 100 µM
A498 renal
  TGI: > 100 µM
IGROV1 ovarian
  TGI: > 100 µM
SR leukemia
  TGI: > 100 µM
RXF 393 renal
  TGI: > 100 µM
CAKI-1 renal
  TGI: > 100 µM
TK-10 renal
  TGI: > 100 µM
HT29 colon
  TGI: > 100 µM
UO-31 renal
  TGI: > 100 µM
SNB-75 CNS
  TGI: > 100 µM
786-0 renal
  TGI: > 100 µM
HCT-15 colon
  TGI: > 100 µM
OVCAR-5 ovarian
  TGI: > 100 µM
SF-268 CNS
  TGI: > 100 µM
PC-3 prostate
  TGI: > 100 µM
SF-295 CNS
  TGI: > 100 µM
BT-549 breast
  TGI: > 100 µM
KM12 colon
  TGI: > 100 µM
SK-MEL-28 melanoma
  TGI: > 100 µM
OVCAR-3 ovarian
  TGI: > 100 µM
M14 melanoma
  TGI: > 100 µM
A549 NSCLC
  TGI: > 100 µM
T-47D breast
  TGI: > 100 µM
SNB-19 CNS
  TGI: > 100 µM
COLO 205 colon
  TGI: > 100 µM
SF-539 CNS
  TGI: > 100 µM
HOP-92 NSCLC
  TGI: > 100 µM
SK-MEL-5 melanoma
  TGI: > 100 µM

## CCCC[C@@H]1CCN2C[C@@H](O)[C@@H](O)[C@@H]2[C@H]1O
OVCAR-8 ovarian
  TGI: > 100 µM
UACC-257 melanoma
  TGI: > 100 µM
EKVX NSCLC
  TGI: > 100 µM
ACHN renal
  TGI: > 100 µM
NCI-H226 lung
  TGI: > 100 µM
SK-OV-3 ovarian
  TGI: > 100 µM
SN12C renal
  TGI: > 100 µM
NCI-H460 lung
  TGI: > 100 µM
OVCAR-4 ovarian
  TGI: > 100 µM
MDA-MB-435
  TGI: > 100 µM
MOLT-4 leukemia
  TGI: > 100 µM
NCI-H522 lung
  TGI: > 100 µM
MALME-3M melanoma
  TGI: > 100 µM
MDA-N
  TGI: > 100 µM
LOX IMVI melanoma
  TGI: > 100 µM
SW-620 colon
  TGI: > 100 µM
HS 578T breast
  TGI: > 100 µM
NCI/ADR-RES ovarian
  TGI: > 100 µM
HL-60(TB) leukemia
  TGI: > 100 µM
MCF7 breast
  TGI: > 100 µM
HCC-2998 colon
  TGI: > 100 µM
HCT-116 colon
  TGI: > 100 µM
SK-MEL-2 melanoma
  TGI: > 100 µM
UACC-62 melanoma
  TGI: > 100 µM
CCRF-CEM leukemia
  TGI: > 100 µM
U251 CNS
  TGI: > 100 µM
NCI-H23 lung
  TGI: > 100 µM
RPMI-8226 leukemia
  TGI: > 100 µM
MDA-MB-231 breast
  TGI: > 100 µM
K-562 leukemia
  TGI: > 100 µM
DU-145 prostate
  TGI: > 100 µM
A498 renal
  TGI: > 100 µM
IGROV1 ovarian
  TGI: > 100 µM
SR leukemia
  TGI: > 100 µM
RXF 393 renal
  TGI: > 100 µM
CAKI-1 renal
  TGI: > 100 µM
HT29 colon
  TGI: > 100 µM
UO-31 renal
  TGI: > 100 µM
SNB-75 CNS
  TGI: > 100 µM
786-0 renal
  TGI: > 100 µM
HCT-15 colon
  TGI: > 100 µM
OVCAR-5 ovarian
  TGI: > 100 µM
SF-268 CNS
  TGI: > 100 µM
PC-3 prostate
  TGI: > 100 µM
SF-295 CNS
  TGI: > 100 µM
BT-549 breast
  TGI: > 100 µM
KM12 colon
  TGI: > 100 µM
SK-MEL-28 melanoma
  TGI: > 100 µM
OVCAR-3 ovarian
  TGI: > 100 µM
M14 melanoma
  TGI: > 100 µM
A549 NSCLC
  TGI: > 100 µM
T-47D breast
  TGI: > 100 µM
SNB-19 CNS
  TGI: > 100 µM
COLO 205 colon
  TGI: > 100 µM
SF-539 CNS
  TGI: > 100 µM
HOP-92 NSCLC
  TGI: > 100 µM
SK-MEL-5 melanoma
  TGI: > 100 µM
